How the values were obtained:
Assay type in all cases: in vivo
[1] = system: Myzus persicae; assay: Myzus persicae spray test (Chinese cabbage leaf discs); settings: foliar, 120 h, 500 g/ha, after 5-6 days, read-out: efficacy
In short: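 Formulated compound in acetone/dimethylformamide, diluted in water with 1000 ppm emulsifier, was sprayed onto Brassica pekinensis leaf discs carrying mixed-stage Myzus persicae. Percent mortality was read 5-6 days later (0% = no aphids killed, 100% = all killed).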

[2] = system: Myzus persicae; assay: Myzus persicae oral test; settings: 120 h, 20 ppm, oral uptake, after 5 days, read-out: efficacy
In short: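 Aphids of mixed ages imbibe, through parafilm, compound solution (acetone stock, water-diluted) combined with sugar-supplemented IPL41 medium to 200 μl. Efficacy read at day 5 as percent killed, 0% meaning no deaths.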

[3] = system: Meloidogyne incognita; assay: Meloidogyne incognita test; settings: 336 h, lettuce, after 14 days, read-out: nematicidal efficacy (formation of galls)
In short: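 Gall formation on lettuce roots scored after 14 days: 0% means gall count equals untreated control, 100% means none. Sand vessels held the compound (acetone concentrate diluted in water), southern root-knot nematode egg/larvae suspension and lettuce seeds.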

| Compound | pest or weed control at 500 g/ha [1] [%] | pest or weed control at 20 ppm [2] [%] | pest or weed control at 20 ppm [3] [%] |
| --- | --- | --- | --- |
| Cn1cc(C(=O)NS(=O)(=O)c2c(Cl)cccc2C(F)(F)F)nc1-c1c(F)cccc1F [Example 372] | 100 | 100 | 90 |
| Cc1cc(C(=O)NS(=O)(=O)c2ccccc2Br)nn1-c1ncccc1Br [Example 296] | 90 | 90 | 90 |
| Cn1cc(C(=O)NS(=O)(=O)c2c(Cl)cc(Cl)cc2Cl)nc1-c1c(F)cccc1F [Example 435] | 100 | 100 | 90 |
| Cc1[nH]c(-c2ccc(Cl)cc2)nc1C(=O)NS(=O)(=O)C(C)C [Example 235] | 100 | 100 | 90 |
| COc1ccc(Cl)c(S(=O)(=O)NC(=O)c2cn(C)c(-c3ncccc3F)n2)c1 [Example 514] | 100 | 100 | 90 |
| CC(C)Nc1cccc(F)c1S(=O)(=O)NC(=O)c1cn(C)c(-c2c(F)cccc2F)n1 [Example 178] | 90 | 100 | 100 |
| Cc1ccc(S(=O)(=O)NC(=O)c2cn(C)c(-c3c(F)cccc3F)n2)c(C)c1 [Example 443] | 90 | 100 | 100 |
| CCSc1ccccc1S(=O)(=O)NC(=O)c1cn(C)c(-c2c(F)cccc2F)n1 [Example 169] | 100 | 100 | 90 |
| CCc1ccc(C)c(S(=O)(=O)NC(=O)c2cn(C)c(-c3c(F)cccc3F)n2)c1 [Example 395] | 100 | 90 | 90 |
| COc1ccc(Cl)c(S(=O)(=O)NC(=O)c2nc(-c3ccccc3Cl)n(C)n2)c1 [Example 15] | 90 | 100 | 90 |
| CCc1ccccc1S(=O)(=O)NC(=O)c1cc(C)n(-c2ncccc2Cl)n1 [Example 284] | 100 | 100 | 90 |
| Cn1cc(C(=O)NS(=O)(=O)c2cccc(Cl)c2)nc1-c1c(F)cccc1Cl [Example 113] | 90 | 100 | 100 |
| COc1ccccc1S(=O)(=O)NC(=O)c1cn(C)c(-c2cccc(Cl)c2Cl)n1 [Example 567] | 100 | 100 | 90 |
| Cc1cc(C(=O)NS(=O)(=O)c2ccccc2Br)nn1-c1c(F)cccc1F [Example 257] | 90 | 100 | 90 |
| Cc1cc(C(=O)NS(=O)(=O)c2ccccc2Cl)nn1-c1ncccc1Br [Example 295] | 100 | 100 | 90 |
| Cn1cc(C(=O)NS(=O)(=O)c2ccccc2)nc1-c1c(Cl)cccc1Cl [Example 44] | 90 | 90 | 100 |
| Cc1ccccc1-c1nc(C(=O)NS(=O)(=O)c2c(Cl)cccc2Cl)cn1C [Example 99] | 90 | 100 | 90 |
| Cn1cc(C(=O)NS(=O)(=O)c2c(Cl)cccc2Cl)nc1-c1ccccc1F [Example 96] | 100 | 100 | 100 |
| Cc1ccsc1S(=O)(=O)NC(=O)c1cn(C)c(-c2c(F)cccc2F)n1 [Example 184] | 90 | 100 | 100 |
| Cn1cc(C(=O)NS(=O)(=O)c2cccc(Cl)c2)nc1-c1c(F)cccc1F [Example 45] | 90 | 90 | 100 |
| Cn1nc(C(=O)NS(=O)(=O)c2ccccc2Cl)nc1-c1ccccc1Cl [Example 14] | 90 | 100 | 90 |
| COc1ccc(F)cc1S(=O)(=O)NC(=O)c1cn(C)c(-c2ccccc2Cl)n1 [Example 427] | 100 | 100 | 90 |
| CCc1ccccc1-c1nc(C(=O)NS(=O)(=O)c2ccccc2C)cn1C [Example 497] | 90 | 100 | 90 |

From patent US20200288710A1, “SUBSTITUTED SULPHONAMIDES FOR CONTROLLING ANIMAL PESTS” (BAYER CROPSCIENCE AKTIENGESELLSCHAFT, priority 2016, published 2020)
